Results published in patent US20080300298A1, “Honokiol Derivates For the Treatment of Proliferative Disorders” (priority 2005, published 2008).
Converted amounts (≈) assume the structure as drawn. Like-named read-outs stand apart in the source and are kept apart here.

Tests used:
[1] = test system: splenic B cells; test: CD40 mediated cytokine production of splenic B cells from treated mice; type: in vivo, C57BL/6 or mCD40-LMP1 Tg mice; conditions: honokiol 3 mg/day, day 21-70
Protocol: CD40 mediated IL-6 and TNF-alpha production was also evaluated. […] IL-6 in culture supernatants was assessed by ELISA. Mice were assessed 70 days post-immunization with CII/CF or CFA only (or naïve). Some mice received honokiol (3 mg/day) from day 21-70 post-immunization. […] TNF-a in culture supermatants was assessed by ELISA. Mice were assessed 70 days post-immunization with CII/CF or CFA only (or naïve). Some mice received honokiol (3 mg/day) from day 21-70 post-immunization. […] In LMP1 Tg mice, even negative control mice have lowered IL-6 and TNF-alpha responses. However, IL-10 was not affected, as determined by analyzing the role of Honokiol treatment on B cell IL-10 production. […] IL-10 in culture supermatants was assessed by ELISA. Mice were assessed 70 days post-immunization with CII/CF or CFA only (or naïve). Some mice received honokiol (3 mg/day) from day 21-70 post-immunization.

[2] = test system: human multiple myeloma (MM) cell lines; test: colorimetric (WST-8) growth assay; type: cell-based; conditions: for IC50: Homo sapiens
Source text: Cells: Dexamethasone (Dex)-sensitive MM.1S (wild-type p53) and Dex-resistant MM.1R, RPMI 8226-Dox40 (doxorubicin resistant) and RPMI 8226-LR5 (melphalan resistant) human multiple myeloma (MM) cell lines were used. RPMI-8226 and U266 cells were obtained from the American Type Culture Collection (Rockville, Md.). SU-DHL-4 cells were also utilized. Fresh peripheral blood mononuclear cells (PBMNCs) were obtained from healthy subjects after informed consent. The PBMNC were separated from heparinized peripheral blood by Ficoll-Hipaque density sedimentation. BM specimens were acquired from patients with MM after obtaining informed consent and mononuclear cells were separated by Ficoll-Hipaque density sedimentation. Cells were cultured at 37° C. in RPMI 1640 containing 10% fetal bovine serum (FBS; Sigma, St Louis, Mo.), […], 100 U/mL penicillin, and 100 μg/mL streptomycin (Gibco, Grand Island, N.Y.).
Reagents: Honokiol (HNK; Calbiochem, San Diego, Calif.) was dissolved in ethanol at 20 mg/ml stock solution. Recombinant human interleukin-6 (IL-6), vascular endothelial growth factor (VEGF) and insulin-like growth factor-1 (IGF-1) (R&D Systems, Minneapolis, Minn.) were reconstituted with sterile PBS containing 0.1% FBS (IL-6 and VEGF) and 10 mM of acetic acid containing 0.1% FBS (IGF-1), respectively. Pan-caspase inhibitor z-VAD-fmk (Bachem, Bubendorf, Switzerland) was dissolved in methanol. These reagents were stored at −20° C. and diluted by media just before the use. Doxorubicin (Sigma, St Louis, Mo.) was dissolved in sterile water at the concentration of 3.45 mM. […] Absorbance readings at a wavelength of 450 nm were taken on a spectrophotometer (Molecular Devices Corp., Sunnyvale, Calif.).
HNK inhibits growth of MM cell lines. To identify the therapeutic potential of HNK, MM cell lines and normal PBMNCs were cultured at indicated concentration with HNK for 48 h, and growth was determined by calorimetric assays. […] FIGS. 6A and B show growth inhibition in MM cell lines by HNK as assessed by calorimetric assay after 48 h-culture. […]

[3] = test system: phospholipase D in SVR cells; test: phospholipase D activity; type: cell-based; conditions: 0.5% and 10% serum
Source text: Honokiol analogs can stimulate tumor and endothelial cell apoptosis through inhibition of PLD activity. […] Treatment with […] causes downregulation of S6kinase phosphorylation in a time and dose dependent fashion, as well as downregulation of akt. Thus, honokiol mimics several of the activities of wild type tuberin.

[4] = test system: JNK in CH12.LX cells; test: JNK phosphorylation (Western blotting); type: cell-based, mouse; conditions: CH12.LX cells transfected with hCD40-LMP1
Source text: The cells were pelleted by centrifugation, lysed and analyzed by SDS PAGE and Western blotting. Peroxidase-labeled antibodies were visualized on Western blots using a chemilluminescent detection reagent to assay for JNK phosphorylation.

[5] = test system: STAT-3, ERK and Akt phosphorylation in MM.1S cells; test: Western blotting of IL-6 / IGF-1 growth signaling; type: cell-based, human; conditions: 10 ug/ml HNK for 3 and 6 h, then IL-6 (10 ng/ml) or IGF-1 (25 ng/ml)
[6] = test system: NF-kB in A293 cells; test: NF-kB-dependent reporter gene (SEAP) transcription; type: cell-based, human; conditions: A293, 25 mM (printed) honokiol 12 h
Protocol: A293 cells were transiently transfected with an NF-kB-containing plasmid linked to the SEAP gene and then treated with the indicated concentrations of honokiol. After 24 h in culture with 0.1 nM TNF, cell supernatants were collected and assayed for SEAP activity. Results are expressed as fold activity over the activity of the vector control. […] A293 cells were transiently transfected with the indicated plasmids along with an NF-kB-containing plasmid linked to the SEAP gene and then left either untreated or treated with 25 mM honokiol for 12 h. Cell supernatants were assayed for secreted alkaline phosphatase activity. Results are expressed as fold activity over the activity of the vector control. Bars indicate standard deviation.
NF-kB-dependent reporter gene transcription. The effect of honokiol on TNF-induced NF-kB dependent reporter gene transcription in A293 cells was measured as previously described (Shishodia, S., et al. 2003 Cancer Res. 63:4375-4383).
To test the effect of honokiol on NF-kB-dependent gene transcription, cells were transiently transfected with the NF-kB-regulated SEAP reporter construct and then stimulated with TNF.

[7] = test system: KBM-5 cells; conditions: KBM-5, 72 h, with TNF, paclitaxel or doxorubicin
Protocol: KBM-5 cells (5000 cells/0.1 ml) were incubated at 37° C. with TNF, paclitaxel or doxorubicin in the presence and absence of 5 mM honokiol as indicated for 72 h, and the viable cells were assayed using the MTT reagent. The results are expressed as mean cytotoxicity ±SD from triplicate cultures.
Cytotoxicity assay Cytotoxicity was assayed by the modified tetrazolium salt 3-(4-5-dimethylthilozol-2-yl)-2-5-diphenyl-tetrazolium bromide (MTT) assay as described previously (Bharti, A. C., et al. 2004 J. Biol. Chem. 279:6065-6076).
The effect of honokiol on TNF and chemotherapeutic agent-induced apoptosis was examined by the MTT assay.

Structure (SMILES): C=CCc1ccc(O)c(-c2ccc(O)c(CC=C)c2)c1 [HNK, Honokiol]
- CD40 mediated IL-6 production [1]: CD40 mediated IL-6 production is decreased
- CD40 mediated TNF-alpha production [1]: CD40 mediated TNF-alpha production is decreased
- IC50 ([2]; drug sensitive RPM18226, U266 and MM.1S cells, 48 h, read-out: fifty percent inhibition (IC50) at 48 h): 8 to 10 µg/mL (≈ 30 to 37.5 µM)
- IC50 ([2]; including Melphalan-, Doxorubicin- and Dex-resistant cell lines, read-out: IC50 of growth inhibition of MM cell lines): < 10 µg/mL
- growth of drug resistant cell lines ([2]; RPM18226-Dox40, RPM18226-LR5 and MM.1R cells, 48 h): IC50 values similar to parental drug-sensitive cell lines
- activity of phospholipase D [3]: inhibits the activity of phospholipase D in both 0.5% and 10% serum
- JNK phosphorylation [4]: inhibited by honokiol in a dose dependent manner
- phosphorylation induced by IL-6 and IGF-1 [5]: significantly reduced phosphorylation of STAT-3, ERK and Akt induced by IL-6, as well as ERK and Akt induced by IGF-1
- SEAP expression induced by TNFR1, TRADD, TRAF2, NIK, IKKb, and p65 plasmids [6]: suppressed SEAP expression in all cells except those transfected with p65
- cytotoxic effects of TNF and chemotherapeutic agents (MTT) [7]: enhanced the cytotoxic effects of TNF, paclitaxel, and doxorubicin
